Results: patent US10144715B2, “Piperazine derivatives as liver X receptor modulators” (priority 2014, dated 2018)
Read-outs that look alike come from different tables or passages of the source.

Experiments:
[1] = target: T1, LXR α LBD protein (Homo sapiens (Human), UniProt Q13133); experiment: Human LXRα coactivator recruitment FRET assay, agonist mode; type: biochemical; conditions: agonist mode
Method in brief: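 LXRα- or LXRβ-LBD at 10 nM (2×) mixed with compound in DMSO, then fluorescein-SRC2-3 peptide 200 nM and Tb-anti-GST antibody 20 nM (4×) added; 2 h at rt. Time-resolved FRET read, 100 µs delay, 200 µs window; EC50 from four-parameter fit of percent control.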

[2] = target: T2, Gal4 DNA binding domain fused to the LBD of LXRβ in HEK293 cells (Homo sapiens (Human), UniProt P55055); experiment: cell-based
[3] = target: T3, Gal4 DNA binding domain fused to the LBD of LXRα in HEK293 cells (Homo sapiens (Human), UniProt Q13133); experiment: LXR luciferase transcriptional reporter gene assay, antagonist mode (200 nM T0901317), LXRα; type: cell-based; conditions: for IC50: read-out: Cell LXRα IC50
[4] = target: T4, LXR β LBD protein (Homo sapiens (Human), UniProt P55055); experiment: biochemical; type: biochemical; conditions: for EC50: read-out: FRET LXRβ EC50
Target sequence in this assay (P55055 222-460): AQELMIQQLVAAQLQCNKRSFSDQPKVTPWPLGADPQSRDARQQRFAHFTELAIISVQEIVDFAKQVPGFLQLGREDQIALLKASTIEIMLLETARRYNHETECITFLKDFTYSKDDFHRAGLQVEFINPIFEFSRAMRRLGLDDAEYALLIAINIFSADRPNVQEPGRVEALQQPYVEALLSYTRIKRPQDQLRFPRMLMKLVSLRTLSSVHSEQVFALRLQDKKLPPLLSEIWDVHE

[5] = target: T2, Gal4 DNA binding domain fused to the LBD of LXRβ in HEK293 cells; experiment: cell-based; type: cell-based
[6] = target: T3, Gal4 DNA binding domain fused to the LBD of LXRα in HEK293 cells; experiment: LXR luciferase transcriptional reporter gene assay, agonist mode, LXRα; type: cell-based; conditions: for EC50: read-out: Cell LXRα EC50
[7] = target: T4, LXR β LBD protein; experiment: biochemical; type: binding
Target sequence in this assay (P55055 222-460 limits assumed): as the sequence (P55055 222-460) above

[8] = target: T1, LXR α LBD protein; experiment: LXR α radioligand binding assay (SPA, competition with [3H]TO901317); conditions: read-out: LXRα Binding Ki
[9] = agonist mode, read-out: Cell LXRβ EC50
[10] = antagonist mode, 200 nM T0901317, HEK293 reporter gene assay
[11] = antagonist mode, 200 nM T0901317, HEK293 reporter gene assay, read-out: Cell LXRβ IC50

T3 sequence (Q13133 209-447): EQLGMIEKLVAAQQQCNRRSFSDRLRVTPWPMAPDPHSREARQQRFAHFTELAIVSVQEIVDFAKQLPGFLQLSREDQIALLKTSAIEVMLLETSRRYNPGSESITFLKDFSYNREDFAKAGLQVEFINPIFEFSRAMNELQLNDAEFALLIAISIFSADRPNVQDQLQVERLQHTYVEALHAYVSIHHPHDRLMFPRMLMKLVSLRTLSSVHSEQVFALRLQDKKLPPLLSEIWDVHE
T1 sequence (Q13133 209-447): as above
T2 sequence (P55055 222-460 limits assumed): as the sequence (P55055 222-460) above

Compound	EC50 [1] [nM]	FRET LXRα efficacy [1] [%]	Cell LXRβ efficacy ([2]; agonist mode)	EC50 [2, 9] [nM]	Cell LXRα efficacy [3]	IC50 [3] [nM]	FRET LXRβ efficacy ([4]; agonist mode)	EC50 ([4]; agonist mode) [nM]	Cell LXRβ efficacy [5, 10]	IC50 [5, 11] [nM]	Cell LXRα efficacy [6]	EC50 [6] [nM]	Ki ([7]; read-out: LXRβ Binding Ki) [nM]	EC50 [2] [nM]	EC50 [4] [nM]	IC50 [5] [nM]	IC50 [3, 10] [nM]	EC50 ([6]; agonist mode) [nM]	also measured
CS(=O)(=O)c1cc(N2CCN(C[C@H]3CC[C@@H](C(F)(F)F)CC3)[C@@H](c3ccccc3)C2)ccc1C(N)=O (single isomer, unassigned) [17-39]	267	55	26%	630	9842 (125) %	9840	61%	63	135%	2660	1648 (67) %	1650	107	–	–	–	–	–	–
Cc1ccc(CN2CCN(c3cccc(S(C)(=O)=O)c3)C[C@@H]2c2ccccc2)cc1 (single isomer, unassigned) [46-6]	> 50000	–	–	–	957 (105) %	957	–	–	–	–	–	> 20000	63	> 20000	> 50000	148	–	–	Ki [8]: 519 nM; Cell LXRβ efficacy [5]: 148 (106) %
CC(C)[C@@H]1CN(c2cccc(S(C)(=O)=O)c2)CCN1C(=O)OC(C)(C)C [1-1, tert-butyl (R)-2-isopropyl-4-(3-(methylsulfonyl)phenyl)piperazine-1-carboxylate]	409	60	467 (34) %	–	–	> 10000	88%	15	1996 (45) %	–	2778 (44) %	2780	157	467	–	2000	–	–	Ki [8]: 1690 nM
CS(=O)(=O)c1cccc(N2CCN(C[C@H]3CC[C@H](C(F)(F)F)CC3)[C@@H](c3ccccc3)C2)c1 (single isomer, unassigned) [48-33]	4870	74	32%	466	5224 (46) %	5220	82%	375	52%	583	1245 (49) %	1240	–	–	–	–	–	–	–
Cc1nc(N2CCN(c3ccc(F)c(S(C)(=O)=O)c3)C[C@H]2C(C)C)ncc1Cl [7-12, (R)-5-chloro-2-(4-(4-fluoro-3-(methylsulfonyl)phenyl)-2-isopropylpiperazin-1-yl)-4-methylpyrimidine]	677	86	177 (58) %	–	–	> 10000	–	–	–	–	997 (83) %	997	9	177	–	> 10000	–	–	Ki [8]: 105 nM
C[C@]1(c2ccccc2)CN(c2cccc(S(C)(=O)=O)c2)CCN1Cc1ccc(C(F)(F)F)c(Cl)c1 (single isomer, unassigned) [46-34]	862	40	587 (10) %	–	7451 (87) %	–	–	–	688 (70) %	–	2082 (24) %	–	32	587	257	688	7450	2080	–
C[C@]1(c2ccccc2)CN(c2cccc(S(C)(=O)=O)c2)CCN1Cc1ccc(C(F)(F)F)cc1 (single isomer, unassigned) [46-21]	3000	24	541 (12) %	–	–	–	–	–	537 (75) %	–	2026 (20) %	–	–	541	> 50000	537	> 10000	2030	Ki [7]: 85 nM
benzyl (R)-2-isobutyl-4-(3-(methylsulfonyl)phenyl)piperazine-1-carboxylate [1-13]	586	37	7%	265	4105 (131) %	4100	52%	36	132%	756	2139 (16) %	2140	–	–	–	–	–	–	–
CS(=O)(=O)c1cccc(N2CCN(Cc3ccc(C(F)(F)F)cc3)[C@@H](c3ccc(F)cc3)C2)c1 [46-24, (S)-2-(4-fluorophenyl)-4-(3-(methylsulfonyl)phenyl)-1-(4-(trifluoromethyl)benzyl)piperazine]	2700	39	636 (27) %	–	3139 (51) %	–	347 (45) %	–	5823 (95) %	–	2711 (31) %	–	359	636	347	5820	3140	2710	–
CS(=O)(=O)c1cccc(N2CCN(Cc3ccc(C(F)(F)F)c(F)c3)[C@@H](c3ccccc3)C2)c1 (single isomer, unassigned) [46-26]	2860	59	676 (62) %	–	7585 (36) %	–	411 (73) %	–	6798 (54) %	–	1479 (62) %	–	58	676	411	6800	7580	1480	–
NS(=O)(=O)c1cccc(N2CCN(C[C@H]3CC[C@@H](C(F)(F)F)CC3)[C@@H](c3ccccc3)C2)c1 (single isomer, unassigned) [48-35]	416	52	27%	120	7574 (100) %	7570	22%	46	38%	317	351 (62) %	351	–	–	–	–	–	–	–
CC(C)[C@H]1CC[C@H](CN2CCN(c3cccc(S(C)(=O)=O)c3)C[C@@H]2c2ccccc2)CC1 (single isomer, unassigned) [48-15]	2310	40	21%	564	–	> 10000	32%	197	60%	455	1658 (31) %	1660	–	–	–	–	–	–	–
